Results as given in ChEMBL document CHEMBL1914349, “Porpoisamides A and B, two novel epimeric cyclic depsipeptides from a Florida Keys collection of Lyngbya sp” (Bioorg Med Chem, 2011).

Tests used:
U2OS = assay: Antiproliferative activity against human U2OS cells after 48 hrs by MTT assay; assay type: functional, cell-based
HCT-116 = assay: Antiproliferative activity against human HCT116 cells after 48 hrs by MTT assay; assay type: functional, cell-based; conditions: HCT-116, 48 h

| IC50 (U2OS) | IC50 (HCT-116) | Compound |
| --- | --- | --- |
| 28 µM | 25 µM | CCCCC[C@H]1NC(=O)[C@H](C)NC(=O)[C@@H](Cc2ccccc2)N(C)C(=O)[C@@H]2CCCN2C(=O)[C@H]([C@@H](C)CC)OC(=O)[C@H]1C [PORPOISAMIDE A] |
| 22 µM | 21 µM | CCCCC[C@H]1NC(=O)[C@H](C)NC(=O)[C@@H](Cc2ccccc2)N(C)C(=O)[C@@H]2CCCN2C(=O)[C@H]([C@@H](C)CC)OC(=O)[C@@H]1C [PORPOISAMIDE B] |
